Entries after “also recorded” stand apart in the source; their conditions may differ.
Assays:
Format in all cases: in vivo
male 2N mice [1] = experiment: Exploratory activity in novel environment (Activity Chamber)
Procedure: (§1) The Activity Chamber (Med associates Inc., St. Albans, Vt.) was used for the evaluation of general activity, gross locomotor activity, and exploratory behavior. Assessment took place in a square arena, 43.2×43.2 cm, with 3 planes of infrared detectors within a specially designed sound attenuating chamber, 66×55.9×55.9 cm, under dim light. The animal was placed in the center of the testing arena and allowed to move freely for 30 minutes while being tracked by an automated tracking system. Distance moved, velocity, resting time, and vertical count (rearing) were recorded. […] In this part of the study, activity chamber and three cognitive tests, including T-maze spontaneous alternation, contextual fear conditioning (CFC), and novel object recognition were performed. In T-maze spontaneous alternation and contextual fear conditioning, both Ts65Dn and 2N male mice were divided into three treatment groups including normal saline (Vehicle), xamoterol, and betaxolol plus xamoterol groups. In the novel object recognition test, both Ts65Dn and 2N male mice were divided into two treatment groups, normal saline and xamoterol. The T-maze was performed exactly as previously described. […] On the first day (training day), animals were placed in the fear conditioning chamber, and after a 3-minute pre-shock period, they were exposed to 5 shocks (2 s, 0.5 mA,) with inter-trial intervals of 80 seconds and no tone. On the second day, the animals first received xamoterol, xamoterol plus betaxolol, or saline injection, and one hour later, they were placed in the same chamber for 5 minutes. Similar to the previous description of fear conditioning, freezing was defined as the complete lack of motion for a minimum of o.75 second. The Novel Object Recognition task is conducted in an open field arena (40 cm×40 cm). Mice were habituated in the testing room for 1 hour followed by 5 minutes habituation inside the arena without any objects. On 4th day animals were introduced 3 times to arena with 3 identical subjects for 10 minutes with 3 minutes inter trial intervals. On 5th day (24 hours after trainings) one of the objects replaced by a novel one and the time sniffing of each object were used for analysis. For testing the role of β1 adrenergic system, xamoterol and betaxolol (Tocris Bioscience, Ellisville, Mo.) were injected subcutaneously using 10 ml/kg normal saline as vehicle. Xamoterol, (3 mg/kg) was given one hour before testing and betaxolol (1 mg/kg) was given 30 minutes before testing.

male Ts65Dn mice [2] = experiment: as above; settings: for effect on locomotor activity (total ambulatory distance moved): xamoterol 3 mg/kg s.c.
Procedure: as §1

male 2N mice [3] = experiment: Novel object recognition; settings: xamoterol 3 mg/kg s.c.
Procedure: (§2) In this part of the study, activity chamber and three cognitive tests, including T-maze spontaneous alternation, contextual fear conditioning (CFC), and novel object recognition were performed. In T-maze spontaneous alternation and contextual fear conditioning, both Ts65Dn and 2N male mice were divided into three treatment groups including normal saline (Vehicle), xamoterol, and betaxolol plus xamoterol groups. In the novel object recognition test, both Ts65Dn and 2N male mice were divided into two treatment groups, normal saline and xamoterol. The T-maze was performed exactly as previously described. […] On the first day (training day), animals were placed in the fear conditioning chamber, and after a 3-minute pre-shock period, they were exposed to 5 shocks (2 s, 0.5 mA,) with inter-trial intervals of 80 seconds and no tone. On the second day, the animals first received xamoterol, xamoterol plus betaxolol, or saline injection, and one hour later, they were placed in the same chamber for 5 minutes. Similar to the previous description of fear conditioning, freezing was defined as the complete lack of motion for a minimum of o.75 second. The Novel Object Recognition task is conducted in an open field arena (40 cm×40 cm). Mice were habituated in the testing room for 1 hour followed by 5 minutes habituation inside the arena without any objects. On 4th day animals were introduced 3 times to arena with 3 identical subjects for 10 minutes with 3 minutes inter trial intervals. On 5th day (24 hours after trainings) one of the objects replaced by a novel one and the time sniffing of each object were used for analysis. For testing the role of β1 adrenergic system, xamoterol and betaxolol (Tocris Bioscience, Ellisville, Mo.) were injected subcutaneously using 10 ml/kg normal saline as vehicle. Xamoterol, (3 mg/kg) was given one hour before testing and betaxolol (1 mg/kg) was given 30 minutes before testing.

male Ts65Dn mice [4] = experiment: Novel object recognition; settings: xamoterol 3 mg/kg s.c.
Procedure: as §2

C57Bl/6J mice = experiment: Contextual fear conditioning memory retrieval (FIG. 10A, B); settings: betaxolol 1 mg/kg s.c.
Procedure: In all experiments xamoterol 3 mg/kg, atenolol 3 mg/kg, and betaxolol 1 mg/kg were injected subcutaneously. […] Results are shown as mean+SEM (ns=not significant, *=p<0.05, and **=p<0.01).

[5] = xamoterol 3 mg/kg s.c. one hour before testing

O=C(NCCNCC(O)COc1ccc(O)cc1)N1CCOCC1 (stereo not drawn) [xamoterol]
effect on locomotor activity (total ambulatory distance moved) (male 2N mice [1]; xamoterol 3 mg/kg s.c.): no significant effect
Total Ambulatory Distance Moved in Activity Chamber (cm), Mean ± SEM (male 2N mice [1]; [5]): 2554 ± 192 cm
effect on locomotor activity (total ambulatory distance moved) (male Ts65Dn mice [2]): no significant effect
Total Ambulatory Distance Moved in Activity Chamber (cm), Mean ± SEM (male Ts65Dn mice [2]; [5]): 3878 ± 765 cm
effect on locomotor activity (total ambulatory distance moved) (male Ts65Dn mice [2]; listed as Xamoterol): did not show a significant effect
effect on locomotor activity (total ambulatory distance moved) (male Ts65Dn mice [2]; listed as Xamoterole): Xamoterole has no effect on activity
effect on novel object recognition performance (male 2N mice [3]; 2N mice): had no effect
% of Total Investigation in Novel Object Recognition, Mean ± SEM (male 2N mice [3]; male 2N mice): 78.6 ± 2.6%
% of Total Investigation in Novel Object Recognition, Mean ± SEM (male Ts65Dn mice [4]): 73.6 ± 4.2%
effect on novel object recognition deficit (male Ts65Dn mice [4]): completely rescue; also recorded: corrected
effect on novel object recognition deficit (male Ts65Dn mice [4]; listed as Xamoterol): could correct
reversal of betaxolol-induced impairment of memory retrieval (C57Bl/6J mice): reverse the impairment dose-dependently

From US9072746B2, “Method for enhancing learning and memory impaired by neurodegenerative disorders and compounds and compositions for effecting the same” (The Board of Trustees of the Leland Stanford Junior …, priority 2010, dated 2015)
